Assays:
[1] = test system: promoter of S100A8; test: SPR of p53 protein and biotinylated oligo with or without IAA; format: binding, mouse
[2] = test system: microglia; test: S100A8 and cleaved caspase-3 in brain microglia of treated mice (qPCR, western blot); format: in vivo, mouse
Method: Isolation of microglia, neuron, astrocytes, and oligodendrocytes from the brain. Mice were anaesthetized with a mixture of ketamine (16%) and xylazine (3%) by intraperitoneal injection and then sacrificed under basal conditions by transcardial perfusion with perfusion buffer (Ca^2+/Mg^2+ free HBSS containing 0.5 mM EGTA, 10 mM HEPES and 4.2 mM NaHCO3; pH 7.2). The perfused brain was removed and gently mechanically disaggregated with tweezers in dissociation buffer (HBSS containing 10 mM HEPES and 4.2 mM NaHCO3 supplemented with Type I collagenase (0.05%), Dispase II (25 mg/ml), DNase I (2.5 mg/ml), trypsin inhibitor ([…]); pH 7.5) followed by incubation at 37° C. for 1 hour. The tissue homogenate was centrifuged at 1,350×g for 5 minutes at 4° C. […]
Quantitative Real-Time PCR (qPCR) analysis of mRNA expression. […] For analysis of gene mRNA expression, […] of total RNA was reverse transcribed by SuperScript III reverse transcriptase (Invitrogen) and quantitation was performed using primers (Eurofins) with SSOADVANCED™ Universal SYBR Green Supermix (BioRad); GAPDH was used for normalization. […] Analysis and fold-change were determined using the comparative threshold cycle (Ct) method. […] Setting the expression value of GAPDH to 1.0, the relative expression values were calculated as […]. The change in mRNA expression was calculated as fold-change. […]

[3] = Morris water maze (MWM) test; format: in vivo, mouse
Method: Morris water maze (MWM) test. Mice were trained in a 122 cm diameter, 50 cm height open-field water maze with non-reflective interior surfaces. The pool water was filled with water maintained at 25±1° C. and mixed with non-toxic white tempera paint. Distinctive and extra-maze cues were marked on the wall at specific locations and were visible to the mice in the maze. Mice were removed from cages, placed into the water from quasi-random start points and allowed a maximum of 60 seconds to probe the escape platform. The inter interval of each trail remained for 15 seconds. For four consecutive days, four trials (training) were recorded each day with a final test on day 5 (FIG. 4A). Performance was evaluated by the mean escape latencies base on every training trial (Vorhees and Williams, 2006).

[4] = HPLC analysis of IAA and CA in serum and cerebrospinal fluid (CSF) of mice; format: in vivo, mouse
[5] = test system: IAA binding oligo of the S100A8 promoter (hairpin); test: Nucleic acid unwinding assay (helicase); format: biochemical
Method: Nucleic acid unwinding assay. Helicase reactions were carried out in triplicate in 96-well plates. To prepare DNA substrate, 20 μM single strand DNA (WT: 5′-Cy3-[…]-BHQ1-3′ (SEQ ID NO: 5); Mutant: 5′-Cy3-[…]-BHQ1-3′ (SEQ ID NO: 6; Eurofins Genomics LLC, KY) were denatured at 95° C. for 5 minutes in the reaction buffer (25 mM Tris HCl pH 7.5, 100 mM NaCl, 15 mM MgCl2, 1 mM DTT, 0.1 mg/ml BSA) and cooled slowly to room temperature before add IAA (100 nM) and/or helicase ([…]). After ATP (2 mM) was added to initiate the helicase activity, the fluorescence value was recorded using a microplate reader with an excitation wavelength of 550 and an emission wavelength of 570. BHQ: black-hole quencher.

[6] = Interaction of S100p1-G and metabolite: streptavidin pull-down from BV2 cells and LC-MS; format: cell-based, mouse
Method: Interaction of S100p1-G and metabolite. Microglial BV2 cells (2×10^6) were transfected with biotinylated oligo S100p1-G or mutant using Lipofectamin RNAiMAX Reagent (Thermo Fisher) according to the manufacturer's instructions overnight at 37° C. […] of aged mouse fecal supernatant (from one-gram feces) was added into the cell growth medium. After six hours, the cells were collected in RIPA lysis buffer. […] of cell lysate was incubated with […] of DYNABEADS® Streptavidin beads (Thermo Fisher) at room temperature for 1 h. The bio-oligo complex was eluted with biotin (4 mg/ml)) in 25 mM Tris-HCL containing 0.3 M NaCl (PH 8.5) at 95° C. for 5 minutes. Metabolite analysis was performed with LC-MS.

[7] = IAA to young mice, phage to aged mice, oral gavage two months

| Molecule | p53 binding to promoter of S100A8 (SPR) [1] | S100A8 and cleaved caspase-3 in the microglia ([2]; all five major regions of the brain, IAA oral gavage) | swim speeds in MWM ([3]; IAA (0.5 g/kg) to young mice, phage^TSD-27 (1×10^9 pfu/mouse) to aged mice, oral gavage every other day, two months) | latency time to reach the platform in MWM [3, 7] | memory and learning (normalized test path length, MWM) [3, 7] | pass through the blood-brain barrier (BBB) ([4]; aged mice, serum and CSF, gut-derived metabolite) | IAA level in the serum (HPLC) ([4]; young mice gavage-given IAA, aged mice gavage-given phage^TSD-27) | activity of helicase unwinding of the self-complementary binding sequence ([5]; WT Cy3/BHQ1 oligo, with helicase) | unwinding of mutant sequence ([5]; mutant Cy3/BHQ1 oligo) | metabolite within the Bio-S100p1-G complex (LC-MS) ([6]; cell lysates) | expression of S100A8 and cleaved caspase-3 in microglia cells (qPCR, western blot) ([2]; young mice, gavage every other day for 2 months) | memory and spatial learning (MWM) ([3]; aged mice, intravenous, twice a week for 2 months) | IAA in CSF (HPLC) ([4]; aged mice, intravenous oligo, twice a week for 2 months) | IAA recruited to the oligo complex (LC-MS after pull-down) ([6]; microglial cells, gut fecal supernatant, 6 h, biotinylated oligo) |
| --- | --- | --- | --- | --- | --- | --- | --- | --- | --- | --- | --- | --- | --- | --- |
| CC(C)CCN [IAA, isoamylamine] | p53 binds to promoter of S100A8 in an IAA dependent manner | induced | reduced | induced | induced the memory and learning loss | higher amounts than CA | increased | enhanced | attenuated | only IAA interacts with S100p1-G | – | – | – | – |
| S100p1-G: CTGTGGGCAG CTGGCCAAGC (SEQ ID NO: 8), S100A8 promoter −57 . . . −38 (DNA CTGTGGGCAGCTGGCCAAGC; chemistry not given here) | – | – | – | – | – | – | – | – | – | – | prevented | recovered | decline | recruited |

— US20250136997A1, “COMPOSITIONS FOR SEQUESTERING ISOAMYL AMINE AND METHODS OF USE THEREFOR” (University of Louisville Research Foundation, Inc., priority 2023, published 2025)
